According to PubChem BioAssay AID330 (DTP/NCI, 2004):
Several values for one entry are separate records, joined by “and”; a condition that tells them apart may be missing. Identical values can stand only once. Inconclusive results and toxic doses are left out. The calls were made as follows: active = survival T/C of 150% or more; inactive = T/C below 125% in these data.

Test system: P388 leukemia ip, CD2F1 mice, survival T/C
Assay: NCI In Vivo Anticancer Drug Screen. Data for tumor model P388 Leukemia (intraperitoneal) in CD2F1 (CDF1) mice
Conditions: endpoint: median survival time, higher = longer survival
Method in brief: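 Mice carrying the transplanted tumor received test compound or vehicle. Survival was recorded in each group, and the value is the treated-group measurement divided by that of the vehicle-treated control group.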

[1] = dose: 100.0 mg/kg/injection, schedule: Q04DX002 (ip), vehicle: saline
[2] = dose: 200.0 mg/kg/injection, schedule: Q04DX002 (ip), vehicle: saline
[3] = dose: 400.0 mg/kg/injection, schedule: Q04DX002 (ip), vehicle: saline
[4] = dose: 12.5 mg/kg/injection, schedule: Q01DX009 (ip), vehicle: saline
[5] = dose: 25.0 mg/kg/injection, schedule: Q01DX009 (ip), vehicle: saline
[6] = dose: 50.0 mg/kg/injection, schedule: Q01DX009 (ip), vehicle: saline with Tween-80
[7] = dose: 100.0 mg/kg/injection, schedule: Q01DX009 (ip), vehicle: saline with Tween-80
[8] = dose: 200.0 mg/kg/injection, schedule: Q01DX009 (ip), vehicle: saline with Tween-80
[9] = dose: 50.0 mg/kg/injection, schedule: Q01DX009 (ip), vehicle: saline
[10] = dose: 100.0 mg/kg/injection, schedule: Q01DX009 (ip), vehicle: saline
[11] = dose: 50.0 mg/kg/injection, schedule: Q04DX003 (ip), vehicle: saline with Tween-80
[12] = dose: 100.0 mg/kg/injection, schedule: Q04DX003 (ip), vehicle: saline with Tween-80
[13] = dose: 50.0 mg/kg/injection, schedule: Q01DX005 (ip), vehicle: Klucel (hydroxypropylcellulose) (HPC)
[14] = dose: 100.0 mg/kg/injection, schedule: Q01DX005 (ip), vehicle: Klucel (hydroxypropylcellulose) (HPC)
[15] = dose: 200.0 mg/kg/injection, schedule: Q01DX005 (ip), vehicle: Klucel (hydroxypropylcellulose) (HPC)
[16] = dose: 400.0 mg/kg/injection, schedule: Q01DX009 (ip), vehicle: saline with Tween-80
[17] = dose: 25.0 mg/kg/injection, schedule: Q01DX009 (ip), vehicle: other
[18] = dose: 50.0 mg/kg/injection, schedule: Q01DX009 (ip), vehicle: other
[19] = dose: 100.0 mg/kg/injection, schedule: Q01DX009 (ip), vehicle: other
[20] = dose: 200.0 mg/kg/injection, schedule: Q01DX009 (ip), vehicle: other
[21] = dose: 50.0 mg/kg/injection, schedule: Q01DX005 (ip), vehicle: saline with Tween-80
[22] = dose: 100.0 mg/kg/injection, schedule: Q01DX005 (ip), vehicle: saline with Tween-80
[23] = dose: 200.0 mg/kg/injection, schedule: Q01DX005 (ip), vehicle: saline with Tween-80
[24] = dose: 25.0 mg/kg/injection, schedule: Q01DX009 (ip), vehicle: saline with Tween-80
[25] = dose: 200.0 mg/kg/injection, schedule: Q04DX003 (ip), vehicle: saline with Tween-80
[26] = dose: 60.0 mg/kg/injection, schedule: Q01DX005 (ip), vehicle: saline with Tween-80
[27] = dose: 120.0 mg/kg/injection, schedule: Q01DX005 (ip), vehicle: saline with Tween-80
[28] = dose: 240.0 mg/kg/injection, schedule: Q01DX005 (ip), vehicle: saline with Tween-80

Measured: T/C

CNC(=S)NNC(=O)C(Cc1ccc([N+](=O)[O-])cc1)C(=O)NNC(=S)NC
inactive: [1] 98 % of control | [2] 98 % of control | [3] 90 % of control

CNC(=O)n1cccc(OC)c1=O
inactive: [4] 102 % of control and 107 % of control | [5] 100 % of control and 111 % of control

Cc1[nH]nc2c(C/C=C/c3ccccc3)n[nH]c(=O)c12
inactive: dose: 50.0 mg/kg/injection, schedule: Q01DX009 (ip), vehicle: Klucel (hydroxypropylcellulose) (HPC) 98 % of control | dose: 100.0 mg/kg/injection, schedule: Q01DX009 (ip), vehicle: Klucel (hydroxypropylcellulose) (HPC) 100 % of control | dose: 200.0 mg/kg/injection, schedule: Q01DX009 (ip), vehicle: Klucel (hydroxypropylcellulose) (HPC) 101 % of control

OC(CCCCl)CC(O)(C(F)(F)F)C(F)(F)F (stereo not drawn)
inactive: [6] 110 % of control | [7] 110 % of control | [8] 110 % of control

CN(C)CCC1C2CC3CC(C2)CC1C3 (stereo not drawn)
inactive: [9] 94 % of control | [10] 94 % of control

CC(=O)OC(C[Se]c1ccccc1)OC(C)=O
inactive: dose: 37.5 mg/kg/injection, schedule: Q01DX001 (ip), vehicle: saline with Tween-80 105 % of control | dose: 75.0 mg/kg/injection, schedule: Q01DX001 (ip), vehicle: saline with Tween-80 99 % of control and 105 % of control

O=C(CCl)Nc1nncs1
inactive: dose: 12.5 mg/kg/injection, schedule: Q01DX009 (ip), vehicle: distilled water + Tween-80 100 % of control | dose: 25.0 mg/kg/injection, schedule: Q01DX009 (ip), vehicle: distilled water + Tween-80 104 % of control | dose: 50.0 mg/kg/injection, schedule: Q01DX009 (ip), vehicle: distilled water + Tween-80 106 % of control | dose: 100.0 mg/kg/injection, schedule: Q01DX009 (ip), vehicle: distilled water + Tween-80 104 % of control | dose: 200.0 mg/kg/injection, schedule: Q01DX009 (ip), vehicle: distilled water + Tween-80 100 % of control

O=c1[nH]cc(COCC(F)(F)F)c(=O)[nH]1
inactive: [11] 99 % of control | [12] 111 % of control

CC[As](CC)SC(CC[C@@H](C)C1CC[C@@]2(C)C3=C(CC[C@]12C)[C@@]1(C)CC[C@H](O)C(C)(C)[C@@H]1CC3)C(C)C (stereo partly drawn)
inactive: [13] 87 % of control | [14] 92 % of control | [15] 95 % of control

Cc1ccc(C(=O)C2CC(Br)C(Br)CC2C(=O)c2ccc(C)cc2)cc1 (stereo not drawn)
inactive: [7] 91 % of control | [8] 91 % of control | [16] 87 % of control

NNS(=O)(=O)c1ccc2ccccc2c1
inactive: dose: 12.5 mg/kg/injection, schedule: Q01DX009 (ip), vehicle: other 102 % of control | [17] 102 % of control and 86 % of control | [18] 86 % of control | [19] 102 % of control and 95 % of control | [20] 101 % of control and 95 % of control

O=C1c2ccccc2C(=O)c2c(Cl)ccc(O)c21
inactive: [6] 98 % of control and 94 % of control | [7] 99 % of control and 92 % of control | [8] 104 % of control and 112 % of control | [16] 111 % of control and 112 % of control

CN(O)C(=O)CN
inactive: [21] 102 % of control | [22] 102 % of control | [23] 98 % of control | dose: 400.0 mg/kg/injection, schedule: Q01DX005 (ip), vehicle: saline with Tween-80 100 % of control

O=c1[nH]c(=S)[nH]cc1Oc1ccc(Cl)cc1Cl
inactive: [6] 94 % of control | [7] 93 % of control | [8] 95 % of control | [16] 108 % of control

COC(=O)C1=NNC(C(=O)OC)=NN1
inactive: [17] 87 % of control | [18] 106 % of control | [19] 98 % of control | [20] 106 % of control | dose: 400.0 mg/kg/injection, schedule: Q01DX009 (ip), vehicle: other 103 % of control

CC(C)CC(NC=O)C(=O)O (stereo not drawn)
inactive: [13] 104 % of control and 109 % of control | [14] 95 % of control and 100 % of control | [15] 90 % of control

COc1ccc(/C=N/Nc2nnc3c4ccccc4c4ncccc4c3n2)cc1
inactive: dose: 100.0 mg/kg/injection, schedule: Q01DX001 (ip), vehicle: saline with Tween-80 88 % of control | dose: 200.0 mg/kg/injection, schedule: Q01DX001 (ip), vehicle: saline with Tween-80 95 % of control | dose: 400.0 mg/kg/injection, schedule: Q01DX001 (ip), vehicle: saline with Tween-80 106 % of control

O=C1NC(=O)/C(=C/C=C/c2ccccc2)S1
inactive: [24] 102 % of control and 111 % of control | [6] 102 % of control and 116 % of control and 118 % of control | [7] 93 % of control | [8] 123 % of control

OCC(O)C1OC(c2ccco2)OC(CO)C1O (stereo not drawn)
inactive: [21] 102 % of control | [22] 105 % of control | [23] 105 % of control

COC(=O)C1(C)CCCC2(C)C3=CC(=O)OC3(OC)CCC12 (stereo not drawn)
inactive: dose: 2.5 mg/kg/injection, schedule: Q01DX009 (ip), vehicle: saline with Tween-80 107 % of control | dose: 5.0 mg/kg/injection, schedule: Q01DX009 (ip), vehicle: saline with Tween-80 101 % of control | dose: 10.0 mg/kg/injection, schedule: Q01DX009 (ip), vehicle: saline with Tween-80 103 % of control

C=C(C)[C@H]1C[C@@H]2O[C@]2(C)[C@@H](O)C1
inactive: [1] 94 % of control | [2] 102 % of control | [3] 96 % of control

Cc1ccc(S(=O)(=O)OCC2(COS(=O)(=O)c3ccc(C)cc3)COC2)cc1
inactive: dose: 50.0 mg/kg/injection, schedule: Q01DX001 (ip), vehicle: Klucel (hydroxypropylcellulose) (HPC) 107 % of control | dose: 100.0 mg/kg/injection, schedule: Q01DX001 (ip), vehicle: Klucel (hydroxypropylcellulose) (HPC) 103 % of control | dose: 200.0 mg/kg/injection, schedule: Q01DX001 (ip), vehicle: Klucel (hydroxypropylcellulose) (HPC) 100 % of control

CN(C)CCCNC(=O)Cc1cc(O)c2c(c1O)C(=O)c1ccccc1C2=O
inactive: dose: 25.0 mg/kg/injection, schedule: Q04DX003 (ip), vehicle: saline with Tween-80 106 % of control | [11] 106 % of control | [12] 104 % of control and 123 % of control | [25] 120 % of control and 95 % of control

CCNC(=O)OCc1ccco1
inactive: [4] 92 % of control | [5] 92 % of control | [6] 107 % of control

COc1cc(C(=O)O)on1
inactive: [5] 103 % of control | [9] 99 % of control | [10] 89 % of control and 96 % of control

CC(=O)OC1CC2CCCCC2CC1[N+](C)(C)C (stereo not drawn)
inactive: dose: 12.5 mg/kg/injection, schedule: Q01DX009 (ip), vehicle: saline with Tween-80 108 % of control | [24] 112 % of control | [6] 103 % of control and 94 % of control | [9] 105 % of control

CN1CCC2(CC1)C(C#N)C(=O)NC(=O)C2C#N (stereo not drawn)
inactive: [21] 105 % of control | [22] 100 % of control | [23] 100 % of control

O=C(Nc1cc(-c2ccccc2)nn1-c1ccccc1)c1ccccc1F
inactive: [26] 103 % of control | [27] 103 % of control | [28] 111 % of control

CC1CN(C(=S)NNC(C)c2cc3ccccc3cn2)CC(C)O1 (stereo not drawn)
inactive: dose: 12.5 mg/kg/injection, schedule: Q01DX005 (ip), vehicle: saline with Tween-80 97 % of control | dose: 25.0 mg/kg/injection, schedule: Q01DX005 (ip), vehicle: saline with Tween-80 112 % of control

COc1ccc(-c2cnc3c(N)nn(C)c3n2)cc1
inactive: [12] 90 % of control | [25] 100 % of control | dose: 400.0 mg/kg/injection, schedule: Q04DX003 (ip), vehicle: saline with Tween-80 105 % of control

CCOC(=O)C1=C(Nc2ccc(F)cc2)C(=O)N(C(C)(C)C)C1
inactive: [26] 100 % of control | [27] 106 % of control | [28] 93 % of control

O=C(Cn1ccc(O)cc1=O)N1CCOCC1
inactive: dose: 100.0 mg/kg/injection, schedule: Q04DX003 (ip), vehicle: water 95 % of control | dose: 200.0 mg/kg/injection, schedule: Q04DX003 (ip), vehicle: water 90 % of control | dose: 400.0 mg/kg/injection, schedule: Q04DX003 (ip), vehicle: water 100 % of control
